Experimental data published in patent US20230107216A1, “PANTETHEINE DERIVATIVES AND USES THEREOF” (Comet Therapeutics, Inc., priority 2018, published 2023).
Like-named read-outs stand apart in the source and are kept apart here.

Experiments:
[1] = system: Leigh Syndrome (LS) primary fibroblasts GM03672; assay: NADP+/NADPH (NADP/NADPH-Glo), Leigh fibroblasts GM03672; type: cell-based; conditions: Homo sapiens, Fibroblast, 24h, read-out: Increase in Total NADP+ + NADPH
Method: (§1) Primary adherent fibroblasts were cultured in minimum essential medium (MEM) (Gibco, 25030081) supplemented with 2 mM L-Glutamine (Gibco, 25030081), 15% fetal bovine serum (FBS) (Gibco, 26400044) and 1% penicillin/streptomycin (Gibco, 5140122) at 37° C. and 5% CO2. Cells were collected for either passaging or experiment at ˜70-80% confluence. Cells were obtained by trypsinization and seeded in cell culture microplates either white plate (Thermo Fisher Scientific, 152028) for luminescent measurement or black plate (Thermo Fisher Scientific, 165305) for fluorescent based read out for different assays listed below. Cells were obtained by trypsinization and […] were seeded and allowed to adhere for 16-18 hours to have confluency around 70-80% in the cell well with culture media. After 24 hours prior to measurements (37° C., 5% CO2) media was changed to Dulbecco's Modified Eagle Medium (DMEM, Agilent Seahorse cat #103575-100) with the appropriate supplements as stated below.
(§2) Primary fibroblasts assayed were Propionic Acidemia (PA) (GM03590 Coriell Institute for Medical Research, Tsi 6337 Trans-Hit Bio), Methylmalonic Acidemia (MMA) (Tsi 5224 Trans-Hit Bio), Subnormal activation of pyruvate dehydrogenase complex (PDH) (GM01503 Coriell Institute for Medical Research), Very long-chain acyl-CoA dehydrogenase (VLCAD) (GM17475), Leigh Syndrome (LS) (GM03672, GM13411 Coriell Institute for Medical Research), Pyruvate Carboxylase Deficiency (PC) (GM00444 Coriell Institute for Medical Research). 10 μM of Compounds were added for 2 hours in PA, MMA lines and for 24h for the other fibroblast lines.
(§3) Assay was performed according to manufacturer instructions (NADP+/NADPH-Glo Assay Promega, G9082). Assay required a plate for total measurement of NADP+/NADPH and a plate for individual measurement of NADP+ or NADPH. For every assay a 12-point standard curve is prepared ranging from 400 nM to 0.625 nM. Media is removed and replaced with 50 μl of PBS for both assays.
(§4) For individual NADP+/NADPH measurements, 50 μl of 1% DTAB (Sigma, D5047) (cell lysis reagent) in 0.2N NaOH was added to the plates and 100 μl of lysate was split into two plates with 50 μl each from which ratio of NADP/NADPH can be calculated. 25 μl of 0.4N HCl were added to the NADP+ plates and both NADP+ and NADPH plates were heated at 60° C. for 15 minutes. The acid and heat treatment destroyed NADPH allowing individual NADP+ measurements while heating in basic conditions destroys NADP+ allowing individual NADPH measurement. After 15 minutes plates were allowed to come to room temperature and Trizma base (Sigma, T1699) was added to the NADP+ plates to neutralize the acid and HCl Trizma hydrochloride (Sigma, T2694) was added to the NADPH plates. The NADNADPH glo reagent was prepared by adding 125 μl of NAD cycling substrate, 125 μl of reductase, 125 μl of reductase substrate, 125 μl NAD cycling enzyme to a total of the 25 ml of NAD GLO reagent. 1:1 ratio of total volume of reagent was added to the individual NADP+, NADPH measurements (total 100 μl) and 50 μl were added for the total NAD/NADPH measurements. Luminescence was measured for 30-60 minutes within the linear range.
(§5) A total dead cell count was performed as described in Example 817 and only alive cells were used for analysis.

[2] = system: Very long-chain acyl-CoA dehydrogenase (VLCAD) primary fibroblasts GM17475; assay: NADP+/NADPH (NADP/NADPH-Glo), VLCAD fibroblasts GM17475; type: cell-based; conditions: Homo sapiens, Fibroblast, 24h, read-out: Increase in Total NADP+ + NADPH
Method: as §1, §2, §3, §4, §5

[3] = system: Keratinocytes co-cultured with dermal fibroblast (KF3CT system); assay: BioMAP KF3CT system (IL-1β, TNFα, IFNγ, TGFβ); type: cell-based, human; conditions: for % increase in MCP-1: procedure of Example 834
Method: The BioMAP platform (BioMAP® Diversity PLUS® Panel from Eurofins) is an in vitro phenotypic profiling technology that screened the compounds of the present disclosure (hereafter indicated as test agents) in human primary cell-based systems modelling complex tissue and disease states. The BioMAP assays were performed using the Eurofin's BioMAP Technology Platform as (see references 1 to 13 in the example 824 section) to model different diseases on primary cell-based model systems. These systems consisted of either single primary cell types or co-culture cells. Adherent cell types were cultured or co-cultured in 96 or 384-well plates until confluence followed by the addition of compounds prepared in DMSO at a final concentration of ≤0.1%. In each cell-based system, primary cells from heathy donors (2-6 donors) were pooled and treated with compounds at 1 and 10 μM dose 1h prior to stimulation and remain in culture as indicated in Example 825, Example 826, Example 827, Example 828, Example 829, Example 830, Example 831, Example 832, Example 833, Example 834, Example 835, Example 836 and Example 837. For on the BioMAP® Diversity PLUS® Panel, please see the following references, which are incorporate herein.
Following the general procedure as described in Example 824, Keratinocytes were co-cultured with dermal fibroblast (KF3CT system) and treated with IL-1β, TNFα, IFNγ and TGFβ for 24h in the presence or absence of the compounds to model psoriasis, dermatitis and skin biology. Biomarkers read out were; MCP-1, ICAM-1, IP-10, IL-8, MIG, IL-1α, MMP-9, PAI-1, SRB, TIMP-2, uPA.

[4] = Leigh GM03672 P8, assay condition B (1 mM glucose, 2 mM L-glutamine, 1 mM pyruvate, 10% FBS)
[5] = VLCAD GM17475 P10, assay condition A (10 mM glucose, 2 mM L-glutamine, 1 mM pyruvate, 10% FBS)
[6] = Leigh GM03672 P9, assay condition A (10 mM glucose, 2 mM L-glutamine, 1 mM pyruvate, 10% FBS)
[7] = VLCAD GM17475 P10, assay condition B (1 mM glucose, 2 mM L-glutamine, 1 mM pyruvate, 10% FBS)

SMILES: C[C@H](O)CC(=O)CC(=O)SCCNC(=O)CCNC(=O)[C@H](O)C(C)(C)CO [Compound 1306, (2R)-2,4-dihydroxy-N-[2-[(2-[[(5S)-5-hydroxy-3-oxohexanoyl]sulfanyl]ethyl)carbamoyl]ethyl]-3,3-dimethylbutanamide]
- activation at 10 µM [1, 4]: ≥ 10%

SMILES: CC(O)C(C(=O)SCCNC(=O)CCNC(=O)[C@H](O)C(C)(C)CO)C(C)O (stereo partly drawn) [Compound 1285, (2R)-2,4-dihydroxy-N-[2-[(2-[[3-hydroxy-2-(1-hydroxyethyl)butanoyl]sulfanyl]ethyl)carbamoyl]ethyl]-3,3-dimethylbutanamide]
- activation at 10 µM [2, 5]: ≥ 10%

SMILES: COC(=O)CCC(=O)SCCNC(=O)CCNC(=O)[C@H](OC(=O)CNC(C)=O)C(C)(C)CO [Compound 1298, methyl 4-[(2-[3-[(2R)-2-[(2-acetamidoacetyl)oxy]-4-hydroxy-3,3-dimethylbutanamido]propanamido]ethyl)sulfanyl]-4-oxobutanoate]
- activation at 10 µM [1, 6]: ≥ 10%

SMILES: CC(C)(CO)[C@@H](O)C(=O)NCCC(=O)NCCSC(=O)[C@@H](N)Cc1ccc(O)c(O)c1 [Compound 371, (2R)—N-[2-[(2-[[(2S)-2-amino-3-(3,4-dihydroxyphenyl)propanoyl]sulfanyl]ethyl)carbamoyl]ethyl]-2,4-dihydroxy-3,3-dimethylbutanamide]
- % increase in MMP-9 ([3]; 1 uM): ≥10%
- % increase in MCP-1 ([3]; 1 uM): ≥10%

SMILES: CC(O)CC(O)CC(O)CC(=O)SCCNC(=O)CCNC(=O)[C@H](O)C(C)(C)CO (stereo partly drawn) [Compound 401]
- activation at 10 µM [2, 7]: ≥ 10%

SMILES: COC(=O)CCC(=O)SCCNC(=O)CCNC(=O)[C@H](OC(=O)CN)C(C)(C)CO [Compound 1294, methyl 4-[(2-[3-[(2R)-2-[(2-aminoacetyl)oxy]-4-hydroxy-3,3-dimethylbutanamido]propanamido]ethyl)sulfanyl]-4-oxobutanoate]
- activation at 10 µM [1, 6]: ≥ 10%
- % decrease in MMP-9 ([3]; 1 uM): ≥10%
- % increase in IL-1α ([3]; 10 uM): ≥10%

SMILES: COC(=O)CCC(=O)SCCNC(=O)CCNC(=O)[C@H](O)C(C)(C)COC(C)=O [Compound 138]
- % increase in SRB ([3]; 10 uM): ≥10%

SMILES: CC(O)CC(O)CC(=O)SCCNC(=O)CCNC(=O)[C@H](O)C(C)(C)CO (stereo partly drawn) [Compound 400]
- activation at 10 µM [2, 7]: ≥ 10%

SMILES: C[C@@H](O)CC(=O)CC(=O)SCCNC(=O)CCNC(=O)[C@H](O)C(C)(C)CO [Compound 42, (2R)-2,4-dihydroxy-N-[2-[(2-[[(5R)-5-hydroxy-3-oxohexanoyl]sulfanyl]ethyl)carbamoyl]ethyl]-3,3-dimethylbutanamide]
- activation at 10 µM [2, 5]: ≥ 10%
- % increase in MCP-1 ([3]; 10 uM): ≥10%

SMILES: CC(=O)SCCNC(=O)CCNC(=O)[C@H](O)C(C)(C)COC(=O)CCC(=O)O [Compound 1242, (R)-12-hydroxy-13,13-dimethyl-2,7,11,16-tetraoxo-15-oxa-3-thia-6,10-diazanonadecan-19-oic acid]
- activation at 10 µM [2, 5]: ≥ 10%

SMILES: CC(C)(CO)[C@@H](O)C(=O)NCCC(=O)NCCSC(=O)CC(=O)CCC(=O)O [Compound 2, 6-[(2-[3-[(2R)-2,4-dihydroxy-3,3-dimethylbutanamido]propanamido]ethyl)sulfanyl]-4,6-dioxohexanoic acid]
- activation at 10 µM [2, 5]: ≥ 10%
- activation at 10 µM [1, 4]: ≥ 10%

SMILES: COC(=O)CC(C(C)=O)C(=O)SCCNC(=O)CCNC(=O)[C@H](O)C(C)(C)CO (stereo partly drawn) [Compound 410]
- activation at 10 µM [2, 5]: ≥ 10%
- activation at 10 µM [1, 4]: ≥ 10%

SMILES: CC[C@@H](O)CC(=O)SCCNC(=O)CCNC(=O)[C@H](O)C(C)(C)CO [Compound 1245, (2R)-2,4-dihydroxy-N-{2-[(2-{[(3R)-3-hydroxypentanoyl]sulfanyl}ethyl)carbamoyl]ethyl}-3,3-dimethylbutanamide]
- activation at 10 µM [2, 5]: ≥ 10%

SMILES: CC(=O)SCCNC(=O)CCNC(=O)[C@H](O)C(C)(C)COC(=O)[C@@H](N)Cc1ccc(O)c(O)c1 [Compound 498, (3R)-3-[(2-[[2-(acetylsulfanyl)ethyl]carbamoyl]ethyl)carbamoyl]-3-hydroxy-2,2-dimethylpropyl (2S)-2-amino-3-(3,4-dihydroxyphenyl)propanoate]
- % increase in MCP-1 ([3]; 1 uM): ≥10%
- % increase in TIMP-2 ([3]; 10 uM): ≥10%

SMILES: CC(=O)OCC(C)(C)[C@@H](O)C(=O)NCCC(=O)NCCSC(=O)CC(=O)CCC(=O)O [Compound 140, 6-[(2-[3-[(2R)-4-(acetyloxy)-2-hydroxy-3,3-dimethylbutanamido]propanamido]ethyl)sulfanyl]-4,6-dioxohexanoic acid]
- activation at 10 µM [2, 5]: ≥ 10%
- activation at 10 µM [1, 4]: ≥ 10%

SMILES: CC(=O)OCC(C)(C)[C@@H](OC(C)=O)C(=O)NCCC(=O)NCCSC(C)=O [Compound 1264, (1R)-3-(acetyloxy)-1-[(2-[[2-(acetylsulfanyl)ethyl]carbamoyl]ethyl)carbamoyl]-2,2-dimethylpropyl acetate]
- activation at 10 µM [2, 5]: ≥ 10%
- % decrease in IL-1a ([3]; 1 uM): ≥10%
- % increase in MCP-1 ([3]; 1 uM): ≥10%

SMILES: CCC(=O)CC(=O)SCCNC(=O)CCNC(=O)[C@H](O)C(C)(C)CO [Compound 382, (2R)-2,4-dihydroxy-3,3-dimethyl-N-[2-([2-[(3-oxopentanoyl)sulfanyl]ethyl]carbamoyl)ethyl]butanamide]
- activation at 10 µM [2, 5]: ≥ 10%
